Literature values, collected in patent US20240299291A1, “OPHTHALMIC PREPARATION ADMINISTERED BY EYE DROPS AND USED FOR PREVENTING AND TREATING DRY MACULAR DEGENERATION AND RETINAL LIGHT DAMAGE” (CHENGDU RUIMU BIOPHARMACEUTICALS CO., LTD., priority 2021, published 2024).

What was measured:
[1] = test system: age-related macular degeneration (AMD); details: oral metformin
retinal light damage = details: injection into the vitreous cavity of mice, up to 500 mg/kg/day, 7 days, before light damage
[2] = test system: AMPK (adenosine mono-phosphate activated protein kinase); details: mice

In the case of `CN(C)C(=N)N=C(N)N` [metformin], the “Risk of AMD in patients with type 2 diabetes versus patients who did not take metformin” value [1] is given as “significantly lower”, the “Reduction of the incidence of open-angle glaucoma versus patients who did not take metformin” value (AMD; open-angle glaucoma; high-dose group (>1110 g metformin for 2 years)) is given as 25% and the “Effect on the occurrence or development of AMD” value (AMD; open-angle glaucoma; oral metformin) is given as “may have therapeutic effect on the occurrence or development of AMD”. The “Prevention of light damage” value (retinal light damage) was “almost completely prevent the light damage” and the “AMPK activation in the retina of eyes” value [2] was “locally activates AMPK”.
